This is an account of results in patent publication US6974870B2, “Substituted 3-amino-thieno [2,3-b]pyridine-2-carboxylic acid amide compounds and processes for preparing and their uses” (Boehringer Ingelheim Phamaceuticals, Inc., priority 2002, dated 2005).

Some results are limits rather than exact numbers.

One experiment has as its target T1, human IKKβ (Homo sapiens, UniProt O14920).
T1 construct: FLAG (N)
T1 sequence (O14920 1-756): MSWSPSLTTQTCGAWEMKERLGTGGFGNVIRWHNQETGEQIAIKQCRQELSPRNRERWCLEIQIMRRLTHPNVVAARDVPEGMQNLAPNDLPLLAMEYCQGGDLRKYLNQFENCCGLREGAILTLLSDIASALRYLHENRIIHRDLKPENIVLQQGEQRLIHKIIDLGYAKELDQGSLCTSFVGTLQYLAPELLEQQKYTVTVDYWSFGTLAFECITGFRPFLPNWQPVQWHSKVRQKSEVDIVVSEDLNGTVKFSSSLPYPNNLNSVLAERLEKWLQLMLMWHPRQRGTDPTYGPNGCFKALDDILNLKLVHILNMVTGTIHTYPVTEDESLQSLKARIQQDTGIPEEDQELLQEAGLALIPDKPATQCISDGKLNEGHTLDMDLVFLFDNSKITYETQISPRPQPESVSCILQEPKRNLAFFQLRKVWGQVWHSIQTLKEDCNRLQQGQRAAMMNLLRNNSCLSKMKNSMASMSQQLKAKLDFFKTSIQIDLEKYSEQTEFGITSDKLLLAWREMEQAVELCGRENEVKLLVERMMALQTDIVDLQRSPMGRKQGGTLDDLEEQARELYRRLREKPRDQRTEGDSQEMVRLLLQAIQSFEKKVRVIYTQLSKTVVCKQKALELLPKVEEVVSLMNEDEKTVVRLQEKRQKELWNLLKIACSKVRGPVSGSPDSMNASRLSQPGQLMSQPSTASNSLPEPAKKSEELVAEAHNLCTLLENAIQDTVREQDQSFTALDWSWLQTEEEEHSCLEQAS
Put plainly: IKKβ kinase inhibition assay (phosphorylation of IκBα substrate, 33P-ATP). It counts as biochemical. The settings on record: flag-tagged human IKKβ 0.9 μg/ml, GST-IκBα (1-54) 53 μg/ml, 250 nM ATP, 1 hour at 25° C. The protocol: (§1) The inhibition of IKKα and IKKβ by the compounds of the present invention was determined with the following assay that measures the phosphorylation of the IκBα substrate by the respective kinases. The enzymes used in the assay were N-terminally flag-tagged versions of the human IKKβ or IKKα and the substrate was a GST fusion protein with IκBα (amino acids 1-54).
(§2) The reaction mixtures (60 μl) contained 20 mM HEPES pH 7.5, 10 mM MgCl2, 2 mM MnCl2, 100 mM NaCl, 100 μM Na3VO4, 20 mM β-glycerophosphate, 1 mM DTT, 2% DMSO, 250 nM ATP, 0.4 nM [^33P]ATP (specific activity, 3000 Ci/mmol), IκBα substrate, IKK enzyme and test compound. The reaction mixtures contained either 3.6 μg/ml IKKα and 245 μg/ml IκBα or 0.9 μg/ml IKKβ and 53 μg/ml IκBα.
(§3) Reactions were initiated by adding a solution of IκBα substrate and ATP to polypropylene plates containing IKK enzyme that was pre-incubated for 5 minutes with test compound. Then the reaction mixtures were incubated for 1 hour at 25° C., placed on ice and quenched by the addition of 150 μl 10% trichloroacetic acid and 5% disodium pyrophosphate. After mixing, the entire contents of the quenched reaction mixtures were transferred to a pre-wetted Packard UniFilter filtration plate, aspirated and washed 6 times with 250 μl of ddH2O using the Packard Filtermate Harvester. Filtration plates were then air dried, supplemented with 40 μl of Microscint 20 scintillation fluid and the ^33P-labeled reaction products were quantified using the Packard TopCount scintillation counter.
(§4) Compounds were tested in three-fold serial dilutions and inhibitor concentrations to achieve 50% inhibition of enzyme activity (i.e., IC50) were derived from dose-reponse curves using SAS software (SAS Institute, Cary N.C.). A non-linear regression analysis based on the Hill equation was applied to the percent inhibition versus concentration data. In all cases, compound concentrations were verified by HPLC.
What is called IC50 is the concentration at which inhibition is half-maximal. In turn, `NC(=O)c1sc2nc(N3CCC(NCC(O)c4ccc(-c5ccncc5)cc4)CC3)cc(C(F)(F)F)c2c1N` (centres unmarked) [3-Amino-6-{4-[2-hydroxy-2-(4-pyridin-4-yl-phenyl)-ethylamino]-piperidin-1-yl}-4-trifluoromethyl-thieno[2,3-b]pyridine-2-carboxylic acid amide] yielded an IC50 below 1 µM.

The molecule `CCCc1cc(N2CCC(NCC(O)COc3ccc(C#N)cc3)CC2)nc2sc(C(N)=O)c(N)c12` (centres unmarked) [3-Amino-6-{4-[3-(4-cyano-phenoxy)-2-hydroxy-propylamino]-piperidin-1-yl}-4-propyl-thieno[2,3-b] pyridine-2-carboxylic acid amide] came in with an IC50 below 1 µM.

Turning to `CCCc1cc(N2CCC(NCC(=O)Nc3cccc(C(N)=O)c3)CC2)nc2sc(C(N)=O)c(N)c12` [3-Amino-6-(4-{[(3-carbamoyl-phenylcarbamoyl)-methyl]-amino}-piperidin-1-yl)-4-propyl-thieno[2,3-b] pyridine-2-carboxylic acid amide], the IC50 was below 1 µM.

With `CCCc1cc(N2CCC(NC[C@H](O)COc3ccccc3)CC2)nc2sc(C(N)=O)c(N)c12` [3-Amino-6-[4-((S)-2-hydroxy-3-phenoxy-propylamino)-piperidin-1-yl]-4-propyl-thieno[2,3-b] pyridine-2-carboxylic acid amide], the IC50 was below 1 µM.

`CCCc1cc(N2CCC(NCC(O)c3ccc(-c4ccncc4)cc3)CC2)nc2sc(C(N)=O)c(N)c12` (centres unmarked) [3-Amino-6-{4-[2-hydroxy-2-(4-pyridin-4-yl-phenyl)-ethylamino]-piperidin-1-yl}-4-propyl-thieno[2,3-b] pyridine-2-carboxylic acid amide]: the IC50 was below 1 µM.

Molecule `CCCc1cc(N2CCC(NCC(O)C(=O)Nc3ccccc3)CC2)nc2sc(C(N)=O)c(N)c12` (centres unmarked) [3-Amino-6-[4-(2-hydroxy-2-phenylcarbamoyl-ethylamino)-piperidin-1-yl]-4-propyl-thieno[2,3-b] pyridine-2-carboxylic acid amide] returned an IC50 below 1 µM.

As for `CCCc1cc(N2CCC(NCC(=O)NCCO)CC2)nc2sc(C(N)=O)c(N)c12` [3-Amino-6-(4-{[(2-hydroxy-ethylcarbamoyl)-methyl]-amino}-piperidin-1-yl)-4-propyl-thieno[2,3-b] pyridine-2-carboxylic acid amide], the IC50 is below 1 µM.

In turn, `CC(C)(C)c1cc(N2CCC(N)CC2)nc2sc(C(N)=O)c(N)c12` [3-Amino-6-(4-amino-piperidin-1-yl)-4-tert-butyl-thieno[2,3-b] pyridine-2-carboxylic acid amide] registered an IC50 below 1 µM.

Turning to `CCCc1cc(N2CCC(NCC(O)CCc3ccccc3)CC2)nc2sc(C(N)=O)c(N)c12` (centres unmarked) [3-Amino-6-[4-(2-hydroxy-4-phenyl-butylamino)-piperidin-1-yl]-4-propyl-thieno[2,3-b] pyridine-2-carboxylic acid amide], the IC50 was below 1 µM.

Regarding `CCCc1cc(N2CCC(NCC(O)C(=O)NCc3ccccc3)CC2)nc2sc(C(N)=O)c(N)c12` (centres unmarked) [3-Amino-6-[4-(2-benzylcarbamoyl-2-hydroxy-ethylamino)-piperidin-1-yl]-4-propyl-thieno[2,3-b] pyridine-2-carboxylic acid amide], the IC50 is below 1 µM.

With `CCCc1cc(N2CCC(NCC(=O)NCC(N)=O)CC2)nc2sc(C(N)=O)c(N)c12` [3-Amino-6-(4-{[(carbamoylmethyl-carbamoyl)-methyl]-amino}-piperidin-1-yl)-4-propyl-thieno[2,3-b] pyridine-2-carboxylic acid amide], the IC50 was below 1 µM.

The next experiment has as its target T2, human IKKα (Homo sapiens, UniProt O15111).
T2 construct: FLAG (N)
T2 sequence (O15111 1-745): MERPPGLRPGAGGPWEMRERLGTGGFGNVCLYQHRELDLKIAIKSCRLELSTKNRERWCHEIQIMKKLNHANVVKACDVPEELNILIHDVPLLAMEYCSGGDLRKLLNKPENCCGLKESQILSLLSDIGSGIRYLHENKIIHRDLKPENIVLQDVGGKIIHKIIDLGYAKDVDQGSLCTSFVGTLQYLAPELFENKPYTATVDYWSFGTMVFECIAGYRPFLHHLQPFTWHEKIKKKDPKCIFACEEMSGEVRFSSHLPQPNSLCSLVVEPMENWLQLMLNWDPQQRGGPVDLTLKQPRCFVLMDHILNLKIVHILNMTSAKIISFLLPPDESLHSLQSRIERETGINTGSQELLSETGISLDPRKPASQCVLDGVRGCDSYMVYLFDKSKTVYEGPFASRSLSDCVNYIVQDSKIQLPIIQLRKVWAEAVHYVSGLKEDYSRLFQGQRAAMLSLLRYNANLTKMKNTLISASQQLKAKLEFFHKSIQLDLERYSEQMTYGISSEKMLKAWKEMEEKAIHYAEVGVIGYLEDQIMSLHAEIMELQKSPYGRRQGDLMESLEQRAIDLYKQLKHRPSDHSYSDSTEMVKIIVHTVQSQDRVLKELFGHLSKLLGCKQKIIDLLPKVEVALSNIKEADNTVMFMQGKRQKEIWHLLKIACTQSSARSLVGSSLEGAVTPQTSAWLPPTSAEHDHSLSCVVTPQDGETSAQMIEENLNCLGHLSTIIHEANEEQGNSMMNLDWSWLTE
Put plainly: IKKα kinase inhibition assay (phosphorylation of IκBα substrate, 33P-ATP). It is filed as biochemical. The note with it: flag-tagged human IKKα 3.6 μg/ml, GST-IκBα (1-54) 245 μg/ml, 250 nM ATP, 1 hour at 25° C. The protocol:
as §1, §2, §3, §4
On to `NC(=O)c1sc2nc(N3CCC(N)CC3)cc(C(=O)NCCCN3CCOCC3)c2c1N` [33-Amino-6-(4-amino-piperidin-1-yl)-thieno[2,3-b]pyridine-2,4-dicarboxylic acid 2-amide 4-[(3-morpholin-4-yl-propyl)-amide]], for which the IC50 is at most 10 µM.

`NC(=O)c1sc2nc(N3CCC(NCC(O)c4ccc(F)c(F)c4)CC3)cc(C(F)(F)F)c2c1N` (centres unmarked) [3-Amino-6-{4-[2-(3,4-difluoro-phenyl)-2-hydroxy-ethylamino]-piperidin-1-yl}-4-trifluoromethyl-thieno[2,3-b]pyridine-2-carboxylic acid amide] gave an IC50 of at most 10 µM.

For `NC(=O)c1sc2nc(N3CCC(N)CC3)cc(/C=C/c3ccccc3)c2c1N` [3-Amino-6-(4-amino-piperidin-1-yl)-4-((E)-styryl)-thieno[2,3-b]pyridine-2-carboxylic acid amide], the IC50 is at most 10 µM.

`CCCc1cc(N2CCNCC2)nc2sc(C(N)=O)c(N)c12` [3-amino-6-piperazin-1-yl-4-propyl-thieno[2,3-b]pyridine-2-carboxylic acid amide] showed an IC50 of at most 10 µM.

For `CCCc1cc(N2CCN(C)CC2)nc2sc(C(N)=O)c(N)c12` [3-Amino-6-(4-methyl-piperazin-1-yl)-4-propyl-thieno[2,3-b] pyridine-2-carboxylic acid amide], the IC50 is at most 10 µM.

In the case of `CCCc1cc(N2CCC(NCC(O)c3ccc(C(=O)NCc4cccnc4)cc3)CC2)nc2sc(C(N)=O)c(N)c12` (centres unmarked) [3-Amino-6-[4-(2-hydroxy-2-{4-[(pyridin-3-ylmethyl)-carbamoyl]-phenyl}-ethylamino)-piperidin-1-yl]-4-propyl-thieno[2,3-b] pyridine-2-carboxylic acid amide], the IC50 was at most 10 µM.

`NC(=O)c1sc2nc(N3CCC(NCC(O)c4ccc(C(=O)NCc5ccccc5)cc4)CC3)cc(C(F)(F)F)c2c1N` (centres unmarked) [3-Amino-6-{4-[2-(4-benzylcarbamoyl-phenyl)-2-hydroxy-ethylamino]-piperidin-1-yl}-4-trifluoromethyl-thieno[2,3-b]pyridine-2-carboxylic acid amide] showed an IC50 of at most 10 µM.

Molecule `CCCc1cc(N2CC[C@@H](N)C2)nc2sc(C(N)=O)c(N)c12` [3-Amino-6-((R)-3-amino-pyrrolidin-1-yl)-4-propyl-thieno[2,3-b] pyridine-2-carboxylic acid amide] registered an IC50 of at most 10 µM.

`CCCc1cc(N2CCC(NCC(O)c3ccc(C(=O)NCc4cccc(C(N)=O)c4)cc3)CC2)nc2sc(C(N)=O)c(N)c12` (centres unmarked) [3-Amino-6-(4-{2-[4-(3-carbamoyl-benzylcarbamoyl)-phenyl]-2-hydroxy-ethylamino}-piperidin-1-yl)-4-propyl-thieno[2,3-b] pyridine-2-carboxylic acid amide]: the IC50 is at most 10 µM.
